Like-named read-outs stand apart in the source and are kept apart here.
Experiments:
LNCaP = assay: Growth inhibition by MTT, LNCaP prostate cancer cells; format: cell-based, Human; conditions: Homo sapiens, LNCaP
Procedure: Growth inhibitory effects of NATURA and other agents on human cancer cells were determined by standard MTT (3-(4,5-dimethylthiazol-2-yl)-2,5-diphenyltetrazolium bromide Test) as described previously. […] The cells in the plates were then exposed to series of dilution of indicated agent. After 72 h of incubation, 100 μl of the medium was removed from each of the wells and 50 μl of a 1 mg/ml solution of 3-(4,5-dimethylthiazol-2-yl)-2,5-diphenyltetrazolium bromide (MTT) was added to each well and the cells were incubated for additional 4 h. 200 μl of solution of 0.04 N HCl-isopropanol was added to each well to dissolve the black fromazan participates, and absorbance at 540 nm was measured on a 96-Well.
(§1) The cells in the plates were then exposed to series of dilution of indicated agent. After 72 h of incubation, 100 μl of the medium was removed from each of the wells and 50 μl of a 1 mg/ml solution of 3-(4,5-dimethylthiazol-2-yl)-2,5-diphenyltetrazolium bromide (MTT) was added to each well and the cells were incubated for additional 4 h. 200 μl of solution of 0.04 N HCl-isopropanol was added to each well to dissolve the black fromazan participates, and absorbance at 540 nm was measured on a 96-Well Microplate Reader. Each experiment was repeated at least three times.

neuroblastoma N2A cells = assay: DNA fragmentation (ladder) in N2A neuroblastoma cells; format: cell-based, Mouse; conditions: 5 μM, 2 days
Procedure: Once cancer cells have been arrested at G1 phase by either derivatives of the invention, such as, Meisiondigo or NATURA, they will either differentiate or enter apoptosis. […] FIG. 8 confirms that Meisoindigo and NATURA cause apoptosis. The formation of DNA fragmentation (ladder) were measured, an indicator of cell apoptosis, in both LNCaP prostate and N2A neuroblastoma cells. To do this LNCaP and neuroblastoma N2A cells at exponential growth phase were exposed to indicated concentrations of Meisoindigo or NATURA or Taxol (20 nM, as a positive control) for 2 days. The cells were harvested, washed and DNA extracted. Approximately 2 μg per lane of DNA were subjected to 2% agarose gel electrophoresis.
Induction of Apoptosis: As we mentioned previously that cancer cells probably have two options after arrest at G1 phase, i.e. differentiation or apoptosis. […] To confirm our hypothesis and earlier observations, we measured poly(ADP-ribose) polymerase (PARP) degradation and the formation of DNA fragmentation (ladder), indicators of cell apoptosis, in both LNCaP prostate and N2A neuroblastoma cells. LNCaP and neuroblastoma N2A cells at exponential growth phase were exposed to indicated concentrations of Meisoindigo or NATURA or Taxol (20 nM, as a positive control) for 2 days. The cells were harvested, washed and DNA extracted. […]

[1] = Acute toxicity, median lethal dose LD50; conditions: for DFP (Frequency of Death): mice, oral, two weeks
Procedure: The animals were given Meisoindigo suspension orally at dosage of 0, 1.85, 2.60, 3.60, 5.10, 7.14, and 10.00 g/kg respectively. The animals were tested for two weeks, and the LD50 was measured using modified Bliss method as follows.
LD50 was calculated using following equation: LD50=log^−1 [Xm−i(ΣDFP−0.5)]
Here, Xm is the maximal frequency of death, Xm=I in this case; i is the distance of group. It is determined by following equation, in this case r=1.4 i=log 1/r=0.146

ML-1 cells = assay: Morphological differentiation of ML-1 cells; format: cell-based, human; conditions: 5 days after exposure
cyclin D1 = assay: Cyclin D1 protein level by Western blot in HUVEC cells; format: cell-based, human; conditions: 24 hrs; for cyclin D1 protein: 15 μM; for expression of cyclin D1: 5.0 and 15 μM
Procedure: Meisoindigo and NATURA also significant inhibit expression of cyclin D1 in HUVEC cells. Exponentially growing HUVEC cells were exposed to 5.0 and 15 μM of Meisoindigo and NATURA, 24 hrs after the exposures, the cells were harvested, washed, and total proteins extracted for Western blot analysis using a monoclonal antibody specific against cyclin D1 (Dako). […] As a result, phosphorylation of a tumor suppressor protein Rb, a native substrate of cyclin D1 mediated cdks, was diminished (data not shown).
HUVEC cells grown exponentially were treated for 24 hrs with […] of Meisoindigo and NATURA. The cells were harvested, washed, and total proteins extracted for Western blot analysis as previously described using antibodies specifically against cyclin D1 (panel A), and b-actin (equal loading control, panel B), and detected by ECL detection kit (Amersham). The levels of cyclin D1 from Panel A were quantitated by an imagine densitometor and normalized by b-action (Panel C).

MCF-7 = assay: Growth inhibition by MTT, MCF-7 breast cancer cells; format: cell-based, Human; conditions: Homo sapiens, MCF7, 72 h exposure
Procedure: (§2) Growth inhibitory effects of NATURA and other agents on human cancer cells were determined by standard MTT (3-(4,5-dimethylthiazol-2-yl)-2,5-diphenyltetrazolium bromide Test) as described previously. Briefly, cancer cells grown exponentially were aliquoted into 96-well plates at a density of 5000 cells/200 μl per well in RPMI 1640 medium containing 10% FBS overnight. The cells in the plates were then exposed to series of dilution of indicated agent. After 72 h of incubation, 100 μl of the medium was removed from each of the wells and 50 μl of a 1 mg/ml solution of 3-(4,5-dimethylthiazol-2-yl)-2,5-diphenyltetrazolium bromide (MTT) was added to each well and the cells were incubated for additional 4 h. 200 μl of solution of 0.04 N HCl-isopropanol was added to each well to dissolve the black fromazan participates, and absorbance at 540 nm was measured on a 96-Well.
as §1, with “FIGS. 3-5 show the anticancer affects of NATURA in MCF-7 breast cancer cells, DLD-1 colon cancer cells, and LNCaP hormone-dependent prostate cancer cells. The cancer cells grown exponentially were aliquoted into 96-well plates at a density of 5000 cells/200 μl per well in RPMI 1640 medium containing 10% fetal bovine serum (FBS) overnight. The” for “The”

human cancer cell lines = assay: Growth inhibition by MTT, all tested human cancer cell lines; format: cell-based; conditions: Homo sapiens, 72 h, read-out: IC50, growth inhibitory effects on all tested human cancer cell lines, range over breast, colon, prostate lines, three day exposure
Procedure: as §2

[2] = MTT, 72 h exposure (Table 3), read-out: IC50 LNCaP

Structure (SMILES) | IC50 (LNCaP; [2]) [nM] | DNA ladders (neuroblastoma N2A cells) | Unit of DF ([1]; Dose 1.86 g/kg) | [DF]^2P^2 ([1]; Dose 1.86 g/kg) | LD50 at 2 weeks ([1]; Kuan Ming, mouse, in vivo, po) [mg/kg] | LD50 ([1]; Kuan Ming, mouse, in vivo, po, 2 weeks) [mg/kg] | DFP (Frequency of Death) ([1]; Dose 1.86 g/kg) | DFP (Frequency of Death) ([1]; Dose 2.60 g/kg) | DFP (Frequency of Death) ([1]; Dose 3.60 g/kg) | DFP (Frequency of Death) ([1]; Dose 5.10 g/kg) | DFP (Frequency of Death) ([1]; Dose 7.14 g/kg) | DFP (Frequency of Death) ([1]; Dose 10.00 g/kg) | ML-1 cells differentiated morphologically (ML-1 cells) | cyclin D1 protein (cyclin D1) | expression of cyclin D1 (cyclin D1) | IC50 (MCF-7) [nM] | IC50 (human cancer cell lines) [nM] | IC50 (LNCaP; Table 10, read-out: IC50 in LNCaP cells (NATURA and its derivatives)) [nM]
CN1C(=O)/C(=C2/C(=O)Nc3ccccc32)c2ccccc21 [Meisoindigo] | 2340 ± 330 | sufficient to significantly induce DNA ladders | 2.674 | 0 | 3900 ± 800 | 3900 ± 800 | 0 | 0.20 | 0.60 | 0.70 | 0.80 | 1.00 | approximately 48% | almost completely lost | strongly inhibit | 4370 ± 310 | 2150 to 8310 | 
CC(=O)OC1COC(N2C(=O)/C(=C3/C(=O)Nc4ccccc43)c3ccccc32)C(OC(C)=O)C1OC(C)=O [NATURA, 1-(β-D-O-Triacetyl-xylopyranosyl)-isoindigo] | 1720 ± 270 | sufficient to significantly induce DNA ladders |  |  | 7330 ± 1150 |  |  |  |  |  |  |  | approximately 48% | almost completely lost | strongly inhibit | 2910 ± 280 | 1640 to 6920 | 1720

Source: US6933315B2, “Derivatives of isoindigo, indigo and indirubin and methods of treating cancer” (priority 2001, dated 2005)
